Patent US20110136862A1, “NOVEL TETRAMETHYL SUBSTITUTED PIPERIDINE DERIVATIVES AND THEIR USE AS MONOAMINE NEUROTRANSMITTER RE-UPTAKE INHIBITORS” (NEUROSEARCH A/S, priority 2008, published 2011)

Assays:
Type in all cases: biochemical
[1] = target: T1, reuptake of dopamine (DA) in synaptosomes (Rattus norvegicus, UniProt P23977); test: Inhibition of DA reuptake in synaptosomes; conditions: 3H-DA, read-out: DA-uptake IC50
T1 construct: in synaptosomes as described in WO 97/16451; from tissue
Procedure: (§1) Compounds were tested for their ability to inhibit the reuptake of the monoamine neurotransmitters dopamine (DA) noradrenaline (NA) and serotonine (5-HT) in synaptosomes as described in WO 97/16451 (NeuroSearch A/S).
(§2) The test values are given as IC50 (the concentration (μM) of the test substance which inhibits the specific binding of ^3H-DA, ^3H-NA, or ^3H-5-HT by 50%).

[2] = target: T2, reuptake of noradrenaline (NA) in synaptosomes (Rattus norvegicus, UniProt Q63380); test: Inhibition of NA reuptake in synaptosomes; conditions: 3H-NA, read-out: NA-uptake IC50
T2 construct: in synaptosomes as described in WO 97/16451; from tissue
T2 sequence (Q63380 1-617): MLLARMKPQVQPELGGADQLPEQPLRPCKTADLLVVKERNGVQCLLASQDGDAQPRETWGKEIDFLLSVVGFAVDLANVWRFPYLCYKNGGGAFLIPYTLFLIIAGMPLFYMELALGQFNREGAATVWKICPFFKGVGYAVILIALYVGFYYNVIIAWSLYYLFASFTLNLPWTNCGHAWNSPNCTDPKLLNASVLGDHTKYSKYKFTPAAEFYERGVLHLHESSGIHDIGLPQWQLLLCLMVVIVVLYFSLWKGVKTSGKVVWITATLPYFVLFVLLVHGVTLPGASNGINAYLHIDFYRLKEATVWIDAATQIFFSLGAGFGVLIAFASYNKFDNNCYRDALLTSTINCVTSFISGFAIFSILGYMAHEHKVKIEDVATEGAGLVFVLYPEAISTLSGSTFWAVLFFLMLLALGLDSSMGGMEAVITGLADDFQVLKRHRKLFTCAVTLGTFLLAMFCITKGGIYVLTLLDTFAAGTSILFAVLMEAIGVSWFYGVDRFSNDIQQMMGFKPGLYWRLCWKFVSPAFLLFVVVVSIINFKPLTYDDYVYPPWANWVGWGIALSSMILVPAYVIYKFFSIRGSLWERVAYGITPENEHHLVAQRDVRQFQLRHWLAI
Procedure: as §1, §2

[3] = target: T3, reuptake of serotonine (5-HT) in synaptosomes (Rattus norvegicus, UniProt P31652); test: Inhibition of 5-HT reuptake in synaptosomes; conditions: 3H-5-HT, read-out: 5-HT-uptake IC50
T3 construct: serotonine (5-HT) in synaptosomes; from tissue
T3 sequence (P31652 whole entry): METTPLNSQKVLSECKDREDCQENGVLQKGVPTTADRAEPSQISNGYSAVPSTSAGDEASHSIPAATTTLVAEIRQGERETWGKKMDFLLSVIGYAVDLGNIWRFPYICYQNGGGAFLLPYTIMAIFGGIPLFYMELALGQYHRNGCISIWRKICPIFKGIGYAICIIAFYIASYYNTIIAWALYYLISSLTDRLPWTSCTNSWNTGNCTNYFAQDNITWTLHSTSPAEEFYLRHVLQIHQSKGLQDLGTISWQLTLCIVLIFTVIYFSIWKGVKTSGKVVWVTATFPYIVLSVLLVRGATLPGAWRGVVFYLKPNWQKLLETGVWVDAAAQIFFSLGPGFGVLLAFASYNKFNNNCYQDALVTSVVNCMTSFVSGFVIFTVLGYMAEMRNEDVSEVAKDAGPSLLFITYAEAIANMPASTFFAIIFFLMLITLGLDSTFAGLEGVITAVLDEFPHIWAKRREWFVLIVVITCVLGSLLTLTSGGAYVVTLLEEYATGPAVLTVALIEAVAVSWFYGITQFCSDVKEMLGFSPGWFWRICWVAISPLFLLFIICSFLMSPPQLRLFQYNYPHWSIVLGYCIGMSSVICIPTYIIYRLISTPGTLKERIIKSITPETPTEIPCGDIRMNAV
Procedure: as §1, §2

T1 sequence (P23977 whole entry): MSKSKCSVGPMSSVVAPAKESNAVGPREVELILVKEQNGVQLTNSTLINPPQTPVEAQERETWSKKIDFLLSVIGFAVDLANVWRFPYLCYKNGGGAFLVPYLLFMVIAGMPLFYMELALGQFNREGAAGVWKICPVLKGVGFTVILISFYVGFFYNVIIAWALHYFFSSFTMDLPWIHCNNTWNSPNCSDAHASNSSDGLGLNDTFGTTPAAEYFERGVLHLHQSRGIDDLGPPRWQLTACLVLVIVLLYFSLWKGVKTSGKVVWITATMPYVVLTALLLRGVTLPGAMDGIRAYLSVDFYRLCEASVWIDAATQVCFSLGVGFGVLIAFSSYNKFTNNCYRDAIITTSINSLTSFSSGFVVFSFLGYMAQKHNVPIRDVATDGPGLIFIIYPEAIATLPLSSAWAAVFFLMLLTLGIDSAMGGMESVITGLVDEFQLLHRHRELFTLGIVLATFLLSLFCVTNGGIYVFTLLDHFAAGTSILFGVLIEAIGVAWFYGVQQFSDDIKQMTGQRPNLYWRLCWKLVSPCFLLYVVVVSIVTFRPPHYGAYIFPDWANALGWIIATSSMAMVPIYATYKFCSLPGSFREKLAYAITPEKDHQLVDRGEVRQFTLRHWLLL

IC50 [1] | IC50 [2] | IC50 [3] | Structure (SMILES)
78 nM | 130 nM | 13 nM | CC1(C)CC(Oc2ccc3cc(O)ccc3n2)CC(C)(C)N1 [2-(2,2,6,6-Tetramethyl-piperidin-4-yloxy)-quinolin-6-ol]
180 nM | 13 nM | 0.68 nM | CC1(C)CC(Oc2ccc3ccccc3n2)CC(C)(C)N1 [2-(2,2,6,6-Tetramethyl-piperidin-4-yloxy)-quinoline]
